Data published in US20210221787A1, “NIRAPARIB SOLID STATE FORM” (JOHNSON MATTHEY PUBLIC LIMITED COMPANY, priority 2018, published 2021).
Read-outs that look alike come from different tables or passages of the source.

What was measured:
[1] = for extended stability (retention of Form A by XRPD): with and without foil bag
Text: “Stabilized” as used herein relates to an anhydrous form of the p-toluenesulfonic acid salt of niraparib that is capable of retaining its form for up to at least 4 months when held in storage in a sealed container with desiccant, with or without being stored in a foiled bag.
XRPD patterns are obtained using a Bruker D8 Advance equipped with a Cu Ka radiation source (λ=1.54 Å), a 9-position sample holder and a LYNXEYE super speed detector. Samples are placed on air sensitive silicon plate holders with zero-background with domes for analysis. One skilled in the art would recognize that the ° 2 θ values and the relative intensity values are generated by performing a peak search on the measured data and the d-spacing values are calculated by the instrument from the ° 2 θ values using Bragg's equation. One skilled in the art would further recognize that the relative intensity for the measured peaks may vary because of sample preparation, orientation and instrument used, for example.

[2] = cited from earlier work

Row | SMILES | extended stability ([1]; Form A not made under anhydrous conditions (Examples 1-3), compared with Form A made under anhydrous conditions) | extended stability (retention of Form A by XRPD) ([1]; made under anhydrous conditions (Example 4 or 5), sealed vials with desiccant, ambient, 30° C./65% RH or 40° C./75% RH) | extended stability (retention of Form A by XRPD) ([1]; stored only in sealed vials, without desiccant) | form conversion on DVS ([2]; DVS up to 95% RH) | hygroscopicity (DVS curve) ([2]; DVS) | DVS weight gain ([2]; up to 95% RH)
1 | Cc1ccc(S(=O)(=O)O)cc1.NC(=O)c1cccc2cn(-c3ccc([C@@H]4CCCNC4)cc3)nc12 [Form A, p-toluenesulfonic acid salt of niraparib] | does not exhibit extended stability | at least 4 months | do not exhibit the extended stability | – | – | –
2 | Cc1ccc(S(=O)(=O)O)cc1.NC(=O)c1cccc2cn(-c3ccc([C@@H]4CCCNC4)cc3)nc12 [Form III, p-toluenesulfonic acid salt of niraparib] | – | – | – | converted to the monohydrate | very hygroscopic | approximately 15.8%
